# From patent US6699989B1, “Antiviral and antimicrobial guanidine or biguanidine derivatives” (priority 2000, dated 2004)
# Where two headings read alike, the source gives them in different places.
# How the values were obtained:
# HIV-1 = assay: PBMC assay, virus production by reverse transcriptase activity; format: cell-based
# Description: Method 2: PBMC Assay Method (Peripheral Blood Mononuclear cell)—Description
# This assay addresses the issue of providing a rationale for further evaluation of the compound by providing evidence of in vitro anti-HIV activity against a low passage clinical strain of HIV-1. These fresh human peripheral blood mononuclear cell assays use fresh human cells obtained from the American Red Cross from uninfected, normal human donors. Mononuclear cells from these blood samples are isolated by centrifugation and infected with low passage clinical strains of HIV-1 which have been obtained by culture of blood cells from HIV-infected patients with uninfected PBMCs. Since the PBMCs are not killed by HIV infection, endpoint quantification is performed by measurement of virus production in each well by reverse transcriptase assay or p24 ELISA. These assays provide evidence that the test compounds will have efficacy against viruses, which will likely be encountered in patients without genetic changes, introduced by passage in cell culture.
# Thus, PBMCs assay measures the amount of virus released from the infected cells into the tissue culture supernatant. The activity of the test compound is measured by its ability to reduce the level of virus production relative to the virus controls (cells+virus with no added compound). In PBMC culture we use reverse transcriptase activity in the supernatant to quantify the amount of virus production from the infected cells. Endpoint quantification is performed at 6 days post-infection.
# Fresh human peripheral blood lymphocytes (PBL) are isolated from voluntary Red Cross donors, seronegative for HIV and HBV. Leukophoresed blood is diluted 1:1 with Dulbecco's phosphate buffered saline (PBS), layered over 14 mL of Ficoll-Hypaque density gradient in a 50 mL centrifuge tube. Tubes are then centrifuged for 30 minutes at 600×g. Banded PBLs are gently aspirated from the resulting interface and subsequently washed 2× with PBS by low speed centrifugation. […] After incubation, PBLs are centrifuged and reset in RPMI 1640 with 15% FBS, 2 mM L-glutamine, 100 U/mL. penicillin, 100 ug/mL streptomycin, 10 ug/mL gentamycin, and 20 U/mL recombinant human IL-2. PBLs are maintained in this medium at a concentration of 1-2×10E6/mL with bi-weekly medium changes, until use in assay protocol. For the PBL assay, PHA-P stimulated cells from at least two normal donors are pooled, set in fresh medium at 2×10E6/mL and plated in the interior wells of a 96 well round bottom microplate at 50 μL/well. Test drug dilutions are prepared at a 2× concentration in microtiter tubes and 100 μL of each concentration is placed in appropriate wells in a standard format. 50 μL of a predetermined dilution of virus stock is placed in each test well. Wells with cells and virus alone are used for virus control. Separate plates are identically set without virus for drug cytotoxicity studies using an XTT assay system.
# In the standard PBL assay (MOI: 0.2), the assay was ended on day 7 following collection of cell free supernatant samples for reverse transcriptase activity assay. In the low MOI PBL assay (MOI: 0.02), supernatant samples were collected on day 6, day 11, and day 14 post-infection and analyzed for RT activity.
# PBMCs = assay: Toxicity to PBMC, XTT; format: cell-based, human
smiles,measurement,setting,value
N=C(NCCCCCCNC(=N)NC(=N)N1CCN(c2cc3c(cc2F)c(=O)c(C(=O)O)cn3C2CC2)CC1)NC(=N)N1CCN(c2cc3c(cc2F)c(=O)c(C(=O)O)cn3C2CC2)CC1 [BVS-10A],RT ACTIVITY MEAN,"HIV-1; 0.01 μg/ml, ROJO in PBMC",6532.7 cpm
same,RT ACTIVITY MEAN,"HIV-1; 0.032 μg/ml, ROJO in PBMC",7531.7 cpm
same,RT ACTIVITY MEAN,"HIV-1; 0.1 μg/ml, ROJO in PBMC",5919.0 cpm
same,RT ACTIVITY MEAN,"HIV-1; 0.32 μg/ml, ROJO in PBMC",5899.7 cpm
same,RT ACTIVITY MEAN,"HIV-1; 1 μg/ml, ROJO in PBMC",6546.7 cpm
same,RT ACTIVITY MEAN,"HIV-1; 3.2 μg/ml, ROJO in PBMC",2327.0 cpm
same,RT ACTIVITY MEAN,"HIV-1; 10 μg/ml, ROJO in PBMC",274.0 cpm
same,RT ACTIVITY MEAN,"HIV-1; 32 μg/ml, ROJO in PBMC",68.0 cpm
same,RT ACTIVITY MEAN,"HIV-1; 100 μg/ml, ROJO in PBMC",49.3 cpm
same,IC50,"HIV-1; Human immunodeficiency virus 1, PBMC, PBMCs, read-out: 50% inhibition of virus replication",2.5 µg/mL
same,activity at 0.01 µg/mL,"HIV-1; Human immunodeficiency virus 1, 0.01 μg/ml, ROJO in PBMC, read-out: RT ACTIVITY % VC",90.8%
same,activity at 0.032 µg/mL,"HIV-1; Human immunodeficiency virus 1, 0.032 μg/ml, ROJO in PBMC, read-out: RT ACTIVITY % VC",105%
same,activity at 0.1 µg/mL,"HIV-1; Human immunodeficiency virus 1, 0.1 μg/ml, ROJO in PBMC, read-out: RT ACTIVITY % VC",82.2%
same,activity at 0.32 µg/mL,"HIV-1; Human immunodeficiency virus 1, 0.32 μg/ml, ROJO in PBMC, read-out: RT ACTIVITY % VC",82%
same,activity at 1 µg/mL,"HIV-1; Human immunodeficiency virus 1, 1 μg/ml, ROJO in PBMC, read-out: RT ACTIVITY % VC",91%
same,activity at 3.2 µg/mL,"HIV-1; Human immunodeficiency virus 1, 3.2 μg/ml, ROJO in PBMC, read-out: RT ACTIVITY % VC",32.3%
same,activity at 10 µg/mL,"HIV-1; Human immunodeficiency virus 1, 10 μg/ml, ROJO in PBMC, read-out: RT ACTIVITY % VC",3.8%
same,activity at 32 µg/mL,"HIV-1; Human immunodeficiency virus 1, 32 μg/ml, ROJO in PBMC, read-out: RT ACTIVITY % VC",0.9%
same,activity at 100 µg/mL,"HIV-1; Human immunodeficiency virus 1, 100 μg/ml, ROJO in PBMC, read-out: RT ACTIVITY % VC",0.7%
same,IC50,"HIV-1; Human immunodeficiency virus 1, ROJO in PBMC, RT activity, read-out: IC50",2.54 µg/mL
same,concentrations at which active in PBMCs,HIV-1; PBMCs,greater than 3.2 μg/mL
same,TOXICITY % CC,"PBMCs; 0.01 μg/ml, PBMC",103.2%
same,TOXICITY VALUES (XTT O.D. @ 450/650 nm) MEAN,"PBMCs; 0.01 μg/ml, PBMC",3.415 O.D.
same,TOXICITY % CC,"PBMCs; 0.032 μg/ml, PBMC",103.6%
same,TOXICITY VALUES (XTT O.D. @ 450/650 nm) MEAN,"PBMCs; 0.032 μg/ml, PBMC",3.426 O.D.
same,TOXICITY % CC,"PBMCs; 0.1 μg/ml, PBMC",97.1%
same,TOXICITY VALUES (XTT O.D. @ 450/650 nm) MEAN,"PBMCs; 0.1 μg/ml, PBMC",3.214 O.D.
same,TOXICITY % CC,"PBMCs; 0.32 μg/ml, PBMC",100.9%
same,TOXICITY VALUES (XTT O.D. @ 450/650 nm) MEAN,"PBMCs; 0.32 μg/ml, PBMC",3.339 O.D.
same,TOXICITY % CC,"PBMCs; 1 μg/ml, PBMC",96.2%
same,TOXICITY VALUES (XTT O.D. @ 450/650 nm) MEAN,"PBMCs; 1 μg/ml, PBMC",3.181 O.D.
same,TOXICITY % CC,"PBMCs; 3.2 μg/ml, PBMC",103.5%
same,TOXICITY VALUES (XTT O.D. @ 450/650 nm) MEAN,"PBMCs; 3.2 μg/ml, PBMC",3.424 O.D.
same,TOXICITY % CC,"PBMCs; 10 μg/ml, PBMC",108.3%
same,TOXICITY VALUES (XTT O.D. @ 450/650 nm) MEAN,"PBMCs; 10 μg/ml, PBMC",3.583 O.D.
same,TOXICITY % CC,"PBMCs; 32 μg/ml, PBMC",97.3%
same,TOXICITY VALUES (XTT O.D. @ 450/650 nm) MEAN,"PBMCs; 32 μg/ml, PBMC",3.220 O.D.
same,TOXICITY % CC,"PBMCs; 100 μg/ml, PBMC",51.2%
same,TOXICITY VALUES (XTT O.D. @ 450/650 nm) MEAN,"PBMCs; 100 μg/ml, PBMC",1.695 O.D.
same,50% inhibition of cell growth,PBMCs; PBMC cultures,approximately 100 μg/mL
same,TC50,"PBMCs; PBMC, XTT",TC50 (μg/ml) = >100
same,toxicity in PBMCs,PBMCs; at 100 μg/mL,Toxicity was detected
